In patent publication US8778984B2, “Aldosterone synthase inhibitor” (Eli Lilly and Company, priority 2011, dated 2014):

What was measured:
[1] = target: T1, human cyp11B2 (Homo sapiens, UniProt P19099); assay: Aldosterone Synthase Inhibitor Assay (V79-hcyp11B2 cells, aldosterone by LC-MS); assay type: cell-based; settings: aldosterone production from 1 μM DOC, 24 hours incubation, geometric means, separate experiments
T1 construct: expressed in transfected cells
T1 sequence (P19099 25-503): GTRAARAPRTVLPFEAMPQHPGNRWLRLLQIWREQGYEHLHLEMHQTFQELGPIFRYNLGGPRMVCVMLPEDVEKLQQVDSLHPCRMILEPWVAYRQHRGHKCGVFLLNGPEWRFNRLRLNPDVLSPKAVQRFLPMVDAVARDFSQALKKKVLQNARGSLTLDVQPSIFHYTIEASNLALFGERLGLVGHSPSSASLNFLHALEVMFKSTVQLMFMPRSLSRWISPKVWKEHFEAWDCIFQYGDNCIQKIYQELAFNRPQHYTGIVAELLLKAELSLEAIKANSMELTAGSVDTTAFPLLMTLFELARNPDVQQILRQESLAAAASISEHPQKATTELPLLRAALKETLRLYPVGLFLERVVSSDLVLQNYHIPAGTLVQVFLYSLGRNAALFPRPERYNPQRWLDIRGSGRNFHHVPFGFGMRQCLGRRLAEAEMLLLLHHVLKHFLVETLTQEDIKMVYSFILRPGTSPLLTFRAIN
Method: Chinese hamster fibroblast cells (V79, ATCC™) constitutively expressing human cyp11B2 are established by transfection with a mammalian expression vector harboring the human cyp11B2 cDNA under CMV promoter and a neomycin antibiotic resistant gene for selection in mammalian cells. V79 cells are transfected in T225 cm^2 flasks with the lipofectamine transfection reagent and the human cyp11B2 cDNA. Positive clones are selected with the selection antibiotic geneticin at 1 mg/mL.
Aldosterone production from transfected cells is initiated by the addition of 1 μM DOC in the medium. After 24 hours incubation, 100 μL cell culture medium is collected and aldosterone concentration in the medium is determined using a liquid chromatography-mass spectrometry (LC-MS) method. […] The wells are then extracted 3× with EtOAc (150 μl) using the FX, combining the organic layers in a new 96-well plate. The solvent is dried in a GeneVac HT-4 or under nitrogen. […] A 25 μl aliquot of the sample is injected and a gradient from 20-100% ACN+0.1% formic acid (FA) in 1 min is initiated. Aldosterone elutes at 0.7 min. Starting conditions are held for 1 minute to re-equilibrate the column. An ABI 4000 tandem mass spectrometer is used for MS/MS analysis in the negative ion mode. […] The area under the peak from each transition is added together to comprise the signal from aldosterone and IS, respectively. […] The detection limit for aldosterone is […].
DOC and various concentrations of test compounds in 1:3 dilution increments are added to the cell culture medium. After 24 hours incubation, 100 μl of cell medium are collected and aldosterone concentration determined as described above. Data are fit to a 4 parameter-fit logistics curve to determine IC50 values.

[2] = system: aldosterone production in rats; assay: Inhibition of Aldosterone Synthase in Rats (rat sodium-deficiency diet model); assay type: in vivo; settings: Example 1 10.0 mg/kg, Example 49 30.0 mg/kg, Fadrozole 1.0 mg/kg
Method: The effect of compounds on aldosterone production in rats is assessed using the rat sodium-deficiency diet model. […] At 3 hours post dose rats are bled (˜0.5 mL) from the ocular orbit under isoflurane anesthesia. At 6 hours post-dose the rats are euthanized with CO2 and bled by cardiac puncture. Blood samples are clotted at least 30 minutes and serum is prepared and stored at approximately −80° C. until assayed. Aldosterone, steroids, and compound exposure are analyzed by mass spectroscopy.

[3] = system: testosterone production from H295R cells; assay: cells; assay type: cell-based, human; settings: Homo sapiens, NCI-H295R, 48 h, read-out: Testosterone IC50 (μM)
Method: (§1) The human adrenocarcinoma cell line H295R is used to monitor the production of testosterone and estradiol in vitro. […] Various concentrations of test compounds in 1:3 dilution increments are added to the cell culture medium. After incubation for 48 hours, 100 μl culture medium is collected and d5-estradiol and d3-testosterone are added as ISs for estradiol and testosterone respectively.
(§2) An equal volume of sodium carbonate/sodium bicarbonate buffer (0.5 mol/L, pH 9.4) is added to the samples followed by freshly prepared dansyl chloride solution (50 μl, 20 mg/mL). Samples are mixed and incubated for 60 min at 60° C. The samples are then extracted 3× with EtOAc ([…]) using the FX, combining the organic layers in a new deep-well 96-well plate. The solvent is then dried in a GeneVac HT-4 or under nitrogen. The FX is used to reconstitute the samples in 50% MeOH/water ([…]) and the plates are heat-sealed.
(§3) A 40 μl aliquot of the sample is injected and a gradient from 20-100% MeOH in 0.95 min is initiated. An ABI QTRAP 4000 tandem mass spectrometer is used for MS/MS analysis in the positive ion mode. […] These peaks are separately integrated to give the peak areas. The area ratios of testosterone/IS and estradiol/IS are used to determine testosterone and estradiol concentrations by comparison to their respective standard curves. The detection limits for testosterone and estradiol are 0.1 ng/mL and 0.01 ng/mL respectively.

[4] = system: estradiol production from H295R cells; assay: cells; assay type: cell-based, human; settings: Homo sapiens, NCI-H295R, 48 h, read-out: Estradiol IC50 (μM)
Method: as §1, §2, §3

FC(F)(F)c1ccc(C2CCc3[nH]ncc32)cc1 (racemic) [Example 18, (+/−)-4-(4-Trifluoro-methylphenyl)-1,4,5,6-tetrahydrocyclopenta[c] pyrazole]
IC50 [1]: 157 nM

N#Cc1ccc(C2CCCc3[nH]ncc32)cc1F (racemic) [Example 59, (+/−)-2-Fluoro-4-(4,5,6,7-tetrahydro-1H-indazol-4-yl)benzonitrile]
IC50 [1]: 5 nM

Cc1ccc(C2CCCc3n[nH]cc32)cc1 (single isomer, unassigned; isomer 2) [Example 54, 4-(p-Tolyl)-4,5,6,7-tetrahydro-2H-indazole-isomer 2]
IC50 [1]: 154 nM

N#Cc1ccc(C2CCCc3cncn32)cc1 (stereo not drawn) [Fadrozole, fadrozole, reference compound]
% Inhibition 3 hrs ([2]; inhibition of aldosterone vs vehicle, 3 hrs post oral dose): 64.4% | % Inhibition 6 hrs ([2]; inhibition of aldosterone vs vehicle, 6 hrs post oral dose): 55.2% | Aldosterone (pg/mL) 3 hrs ([2]; serum, 3 hrs post oral dose, rat Na-deficient diet model): 669.8 pg/mL | Aldosterone (pg/mL) 6 hrs ([2]; serum, 6 hrs post oral dose, rat Na-deficient diet model): 1144.2 pg/mL

N#Cc1ccc([C@H]2CCc3cncn32)c(F)c1 [Novartis LCI699, reference compound]
IC50 [3]: 5.01 µM | IC50 [4]: 0.123 µM
